Residues, ends and D or L forms follow the SMILES beside them. *: point of attachment. Cbz = O=C(OCc1ccccc1)*; CH2F = FC*
Assays:
786-O cells [1] = test: Induction of apoptosis by immunoblotting of apoptotic markers; assay type: cell-based, human; settings: for induction of apoptosis (cleaved PARP, cleaved caspase 8) / cleavage of apoptotic markers caspase 3 and 8 and PARP: 10 μM, 24 hrs
Method: Method Details Cell Transfection and Treatment: Cultured cells were split and then transfected the following day when about 40% confluent with each construct using Mirus TranslT-2020 (MirusBio) according to manufacturer's protocol. Cells were incubated at 37° C. and then extracted or collected for analysis after 24 hrs (HEK293) or 72 hrs (ccRCC cell lines). Short interfering RNA (siRNA) scramble control and PPP5C (PP5) targeting duplexes were purchased from OriGene (SKU: SR321403A, SR321403B, and SR321403C). Indicated cells were transiently transfected with the siRNA using Mirus TranslT-2020. For PP5 knock-down, either 30 nM of control siRNA or 10 nM of each PP5 siRNA duplex (A, B and C) were mixed prior to transfection. Cells were incubated at 37° C. for 72 hrs, then harvested for protein extraction. […] Cells were then harvested for protein extraction.
(§1) Protein Extraction, Immunoprecipitation and Immunoblotting: Protein extraction from mammalian cells was carried out using methods previously described. Cell lysates were quantified using 1× Bradford reagent (Biorad). For immunoprecipitation, cell lysates were incubated with anti-FLAG antibody conjugated beads (Sigma) or anti-HA conjugated beads (ThermoFisher Scientific) at 4° C. for 2 hrs. Endogenous IPs were achieved by incubating lysate with anti-PP5 antibody (Cell Signaling), anti-FADD antibody (Cell Signaling), or anti-RIPK1 antibody (Cell Signaling) overnight followed by protein G agarose (Invitrogen) at 4° C. for 2 hrs. Immunopellets were washed 4 times with fresh lysis buffer (20 mM Tris-HCl (pH 7.4), 100 mM NaCl, 1 mM MgCl2, 0.1% NP40, protease inhibitor cocktail (Roche), and PhosSTOP (Roche)) and eluted in 5× Laemmli buffer. Precipitated proteins were separated by SDS-PAGE and transferred to nitrocellulose membranes. Co-immunoprecipitated proteins or proteins from cell lysate were detected with antibodies recognizing FLAG, 6×-His (ThermoFisher Scientific), GAPDH (ENZO Life Sciences), Cdc37 (StressMarq), GR, phospho-GR (S211), PP5, caspase-3, cleaved caspase-3, caspase-8, cleaved caspase-8, cleaved caspase-7, cleaved-PARP, phospho-RIPK1 (S166), phospho-FADD (S194), PP2A-C, VHL (Cell Signaling), phospho-RIPK1 (S161) (Invitrogen), PP5 and phospho-Cdc37 (S13) (Abcam). Secondary antibodies raised against mouse and rabbit (Cell Signaling) were used (See Key Resources Table).

Hsp90 = test: Time course with Hsp90 inhibitor SNX-2112, protein levels by immunoblot; assay type: cell-based, human; settings: HEK293 cells, 2 μM
Method: Since a vast majority of PP5 substrates are also clients of the molecular chaperone Hsp90, we asked whether RIPK1 and FADD are clients of this chaperone. We therefore performed a time course assay using the Hsp90 inhibitor SNX-2112 (2 μM) in HEK293 cells. […] To further understand the relationship between FADD and Hsp90, we immunoprecipitated endogenous FADD from 786-O cells and examined the co-IP of Hsp90 (FIG. 4G).
as §1

786-O cells [2] = test: Cell viability / proliferation MTT assay; assay type: cell-based, human; settings: varying doses, 48 hrs
Method: Cell Viability Assay: Renal cancer cell lines 786-O, Caki-2, Caki-1, and A498 as well as the normal renal cell line HK-2 were plated at 10,000 cells per well in 96-well plates. […] After 24 or 48 hrs, cell viability assay was performed using the Quick Cell Proliferation Kit Plus (BioVision) according to the manufacturer's protocol. The absorbance at 450 nm was measured on a Tecan Infinite M200 Pro and proliferation rate was calculated.

recombinant PP5-His6 [3] = target: T1, recombinant PP5-His6 (Homo sapiens, UniProt P53041); test: PP5 Phosphatase Activity and Inhibition Assay (PiPer phosphate release, phospho-S211-GR peptide); assay type: biochemical; settings: phospho-S211-GR peptide substrate; for Ki: IC50 converted to Ki
T1 construct: GST (N, cleaved yes); made in house
T1 sequence (P53041 1-499): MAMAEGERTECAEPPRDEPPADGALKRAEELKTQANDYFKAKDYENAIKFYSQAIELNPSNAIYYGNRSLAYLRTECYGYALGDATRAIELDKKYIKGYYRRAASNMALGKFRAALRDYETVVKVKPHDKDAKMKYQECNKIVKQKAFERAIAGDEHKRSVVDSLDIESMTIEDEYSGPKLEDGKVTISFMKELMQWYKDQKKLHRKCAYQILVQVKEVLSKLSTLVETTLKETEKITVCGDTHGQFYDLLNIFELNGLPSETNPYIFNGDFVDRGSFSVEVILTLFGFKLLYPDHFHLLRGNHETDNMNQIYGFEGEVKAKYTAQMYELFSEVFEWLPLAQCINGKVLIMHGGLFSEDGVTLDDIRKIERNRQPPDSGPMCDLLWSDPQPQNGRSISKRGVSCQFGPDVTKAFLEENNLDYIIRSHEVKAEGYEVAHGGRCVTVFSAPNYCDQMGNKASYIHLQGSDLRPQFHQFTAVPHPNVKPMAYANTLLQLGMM
Method: PP5 inhibitors specifically bind to the phosphatase-catalytic domain: We next sought to measure the inhibition of PP5 activity in vitro with P5 and P13.
Bacterial Expression and Protein Purification of PP5: Human PPP5c was cloned into pGEX6P1 with an N-terminal GST tag and C-terminal His6 tag. Transformed cells were grown at 37° C. in LB with 100 mg/L ampicillin until OD600=0.6 and induced with 1 mM IPTG. Cells were harvested by centrifugation and lysed by sonication in lysis buffer (50 mM Hepes (pH 8.0), 150 mM NaCl, 0.5 mM TCEP and EDTA-free protease inhibitor cocktail tablet (Roche)). Lysate was incubated with talon resin (Takara Bio) for 1 hr at 4° C. The resin was washed three times with lysis buffer and PP5 was eluted with lysis buffer containing 250 mM imidazole. Precision protease was added to the elution overnight to cleave the GST tag and the sample was then mixed with Glutathione Sepharose resin (Cytiva) to remove the free GST and un-cleaved protein. The sample was applied to a Superdex S75 16/60 size exclusion column (GE Healthcare) and eluted in 100 mM NaCl, 20 mM Hepes pH 8, 02 mM TCEP.
PP5 Phosphatase Activity and Inhibition Assay: The phosphatase activity of the recombinant PP5-His6 was measured using the PiPer™ Phosphate Assay Kit (Thermo Fisher Scientific) as described in the manufacturer's protocol. Standard curve with linear fit line was created from 0-1 nM Pifinal concentration reactions. 1 nM of PP5-His6 was added to each reaction with indicated amounts of custom synthesized substrate phospho-S211-glucocorticoid receptor (PhosS211-GR) peptide (see Key Resources Table) as specific substrate (Thermo Fisher Scientific). Reactions were run in triplicate and incubated at 37° C. for over 10 min. […] Enzyme kinetics were calculated and plotted using Lineweaver Burk plot and web-based tool (https://www.aatbio.com/tools/ic50-calculator) for calculating IC50 and (https://bioinfo-abcc.ncifcrf.gov/IC50_Ki_Converter/index.php) for converting IC50 to Ki values for inhibitors of enzyme activity and ligand binding.

recombinant PP5-His6 [4] = target: T1, recombinant PP5-His6; test: P13-BODIPY binding to PP5 by fluorescence anisotropy; settings: measured with 10 nM BODIPY-labeled P13, one-site fit; read-out: binding affinity to PP5
Method: We next synthesized BODIPY-labelled version of compound P13 (P13-BODIPY) in order to obtain the binding affinity of this inhibitor to PP5 in vitro (FIG. S3A). This was accomplished by coupling the azidopropyl-P13 10 with 4,4-difluoro-5,7-dimethyl-4-bora-3a,4a-diaza-s-indacene-3-propionic acid (BODIPY Acid 13). Using fluorescence anisotropy with recombinant PP5 protein (FIG. S3B), we determined the binding affinity of P13 compound to PP5 to be 376.2±60 nM (FIG. 1H).
Binding Measurements and Anisotropy: Recombinant PP5-His6 at the indicated concentrations was incubated on ice in 100 mM NaCl, 20 mM HEPES pH 8.0, 1% glycerol, 0.2 mM tris(2-carboxyethyl)phosphine (TCEP) and 0.5 mM MnCl2 with 10 nM BODIPY-labeled P13 in 2% DMSO for 30 min in opaque black 96 well plates (Corning). Uncalibrated fluorescence anisotropy was then measured using a SpectraMax i3 equipped with fluorescein anisotropy module (Molecular Devices). Curves were fit to a one-site binding equation using GraphPad Prism version 9.5.0. y=y0+A*x/(Kd+x) where y is measured uncalibrated anisotropy, y0 is the y intercept, A is the amplitude of the curve, x is the concentration of PP5 used, and Kd is the measured dissociation constant. Data are presented as mean±SEM.

PP5-FLAG = target: T2, PP5-FLAG (Homo sapiens, UniProt P53041); test: Biotin-P5 and biotin-P13 pulldown from HEK293 lysate; assay type: binding; settings: for binding of PP5-FLAG to biotinylated compound (streptavidin pulldown): 0.01-10 μM
T2 construct: expressed in transfected cells; host or cells: HEK293
T2 sequence (P53041 1-499): T1 sequence (P53041 1-499)
Method: (§2) Biotin-P5 and biotin-P13 Pulldown: HEK293 cells were transiently transfected with PP5-FLAG or active site point mutants and protein lysate extracted. Lysate was incubated with 0.01-10 μM biotin-P5 or biotin P-13 as indicated at 4° C. for 1 hr then added to streptavidin-conjugated agarose and incubated at 4° C. for 1 hr. Following three washes with fresh extraction buffer bound proteins were eluted in 5× Laemmli buffer and analyzed by Western blot. […] Samples were run by SDS PAGE, transferred to nitrocellulose membrane, and analyzed by Western blot.

PP2A = test: Biotin-P5 / biotin-P13 pulldown in 786-O lysate, co-pulldown of PP2A; assay type: binding, human; settings: cell lysate, 1 μM
PP5 = PP5 inhibition in cells by immunoblotting of PP5 substrates phospho-S211-GR and phospho-S13-Cdc37; assay type: cell-based, human; settings: 786-O cells, indicated amounts, 24 hrs
Method: as §1, with “Secondary antibodies raised against mouse and rabbit (Cell Signaling) were used (See Key Resources Table).” left out

[5] = system: PP5-FLAG active site point mutants; test: Biotin-P13 pulldown of PP5 active site point mutants; assay type: binding, human; settings: HEK293 lysate
Method: (§3) We then mutated docking site residues in the active site of PP5 to obtain further insight into the mechanism of P13 binding to PP5. […] These mutants were transiently expressed in HEK293 cells, and then the protein lysates were challenged with different amounts of biotin-P13 (FIG. 1G).
as §2

[6] = target: T3, PP5-FLAG active site point mutants (Homo sapiens, UniProt P53041, R400A); test: as above; assay type: binding; settings: HEK293 lysate
T3 construct: expressed in transfected cells; host or cells: HEK293
T3 sequence (P53041 2-499 R400A): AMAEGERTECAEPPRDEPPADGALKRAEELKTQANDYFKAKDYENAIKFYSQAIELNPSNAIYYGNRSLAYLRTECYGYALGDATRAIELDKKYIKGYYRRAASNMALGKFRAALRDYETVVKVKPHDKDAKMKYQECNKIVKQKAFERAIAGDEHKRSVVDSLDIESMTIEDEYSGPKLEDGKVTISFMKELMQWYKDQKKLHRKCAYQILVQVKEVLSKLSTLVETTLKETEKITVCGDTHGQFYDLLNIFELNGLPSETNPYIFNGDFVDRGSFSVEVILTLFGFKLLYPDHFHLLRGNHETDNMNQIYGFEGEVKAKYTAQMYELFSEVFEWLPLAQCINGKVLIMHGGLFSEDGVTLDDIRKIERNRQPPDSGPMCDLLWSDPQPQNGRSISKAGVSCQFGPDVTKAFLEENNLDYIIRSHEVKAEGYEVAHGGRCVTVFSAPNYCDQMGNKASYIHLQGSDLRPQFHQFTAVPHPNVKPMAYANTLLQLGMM
Method: as §3, §2

Cc1noc(C)c1S(=O)(=O)N(CCCC#N)c1ccc(Oc2ccccc2)cc1 [Compound P075, 4-[(3,5-Dimethyl-4-isoxazolylsulfonyl)(p-phenoxyphenyl)amino]butyronitrile]
induction of apoptosis (cleaved PARP, cleaved caspase 8) (786-O cells [1]): had the ability to induce apoptosis

CC1(C)CC(=O)c2c(C(F)(F)F)nn(-c3ccc(C(N)=O)c(N[C@H]4CC[C@H](O)CC4)c3)c2C1 [SNX-2112]
RIPK1 protein levels (Hsp90; 16 hr): decreased RIPK1 protein levels
FADD protein levels (Hsp90; throughout time course): did not observe a decrease in FADD levels
Hsp90 clients Tsc2, Akt and phos-Ser473-Akt protein levels (Hsp90; time course): destabilized and degraded

COC(=O)c1cccc(NS(=O)(=O)c2c(C)noc2C)c1 [Compound P5, Methyl m-(3,5-dimethyl-4-isoxazolylsulfonylamino)benzoate]
proliferation of 786-O cells (MTT) (786-O cells [2]): significantly inhibited the proliferation
mode of PP5 inhibition (enzyme kinetics, Lineweaver-Burk) (recombinant PP5-His6 [3]): competitive inhibitors
Ki (recombinant PP5-His6 [3]): 277 ± 50 nM
cleavage of apoptotic markers caspase 3 and 8 and PARP (786-O cells [1]): cleavage of the apoptotic markers caspase 3 and 8 and PARP

COC(=O)C[C@H](NC(=O)[C@H](C)NC(=O)[C@@H](NC(=O)OCc1ccccc1)C(C)C)C(=O)CF [z-VAD-fmk, reference compound] (Cbz-Val-Ala-Asp(OMe)-CH2F)
effect on IC261-induced apoptosis (786-O cells [1]; 10 μM for 1 hr, then IC261 for 16 hrs): reversed this effect

Cc1ccc(NS(=O)(=O)c2c(C)noc2C)cc1C [Compound P13, (3,5-Dimethyl-4-isoxazolylsulfonyl)(3,4-xylyl)amine]
proliferation of 786-O cells (MTT) (786-O cells [2]): significantly inhibited the proliferation
mode of PP5 inhibition (enzyme kinetics, Lineweaver-Burk) (recombinant PP5-His6 [3]): competitive inhibitors
Ki (recombinant PP5-His6 [3]): 234 ± 50 nM
Kd (recombinant PP5-His6 [4]): 376 ± 60 nM
cleavage of apoptotic markers caspase 3 and 8 and PARP (786-O cells [1]): cleavage of the apoptotic markers caspase 3 and 8 and PARP

Cc1noc(C)c1S(=O)(=O)Nc1cccc(C(=O)N2CCN(C(=O)CCC[C@@H]3SC[C@@H]4NC(=O)N[C@@H]43)CC2)c1 [biotin-P5, N-[3-(4-(4-[(3aS,4S,6aR)-2-Oxo-hexahydro-1H-thieno[3,4-d]imidazol-4-yl]butanoyl)piperazine-1-carbonyl)phenyl]-3,5-dimethyl-1,2-oxazole-4-sulfonamide]
binding of PP5-FLAG to biotinylated compound (streptavidin pulldown) (PP5-FLAG): binds
binding to PP2A (PP2A): did not bind

Cc1noc(C)c1S(=O)(=O)Nc1ccc(O)c(C(=O)O)c1 [Compound P0]
phosphorylation of PP5 substrates phospho-S13-Cdc37 and phospho-S211-GR (PP5): dose dependent increase in phosphorylation

Cc1noc(C)c1S(=O)(=O)N(CCCCl)c1ccc(Oc2ccccc2)cc1 [Compound P059, (3-Chloropropyl)(3,5-dimethyl-4-isoxazolylsulfonyl)(p-phenoxyphenyl)amine]
induction of apoptosis (cleaved PARP, cleaved caspase 8) (786-O cells [1]): had the ability to induce apoptosis

Cc1ccc(N(CCCNC(=O)CCC[C@@H]2SC[C@@H]3NC(=O)N[C@@H]32)S(=O)(=O)c2c(C)noc2C)cc1C [biotin-P13, 4-[(3aS,4S,6aR)-2-Oxo-hexahydro-1H-thieno[3,4-d]imidazol-4-yl]-N-(3-[N-(3,4-dimethylphenyl)3,5-dimethyl-1,2-oxazole-4-sulfonamido]propyl}butanamide]
binding to PP5-FLAG compared to biotin-P5 (PP5-FLAG; 10 μM): bound more
binding of PP5-FLAG to biotinylated compound (streptavidin pulldown) (PP5-FLAG): binds
binding to PP2A (PP2A): did not bind
binding of H304Q, M309C and W386F PP5 mutants [5]: unable to bind
binding of R275A and Y451F PP5 mutants compared to wild-type PP5 [5]: increased binding
binding of R400A PP5 mutant compared to wild-type PP5 [6]: reduced binding

CCCCN(c1ccc(Oc2ccccc2)cc1)S(=O)(=O)c1c(C)noc1C [Compound P058, N-Butyl(3,5-dimethyl-4-isoxazolylsulfonyl)(p-phenoxyphenyl)amine]
induction of apoptosis (cleaved PARP, cleaved caspase 8) (786-O cells [1]): had the ability to induce apoptosis

— US20250360108A1, “CATALYTIC INHIBITOR OF PROTEIN PHOSPHATASE 5 ACTIVATES THE EXTRINSIC APOPTOTIC PATHWAY BY DISRUPTING COMPLEX II” (The Research Foundation for the State University of New York, priority 2022, published 2025)
